Laboratory results as given in US10906909B2, “Treatment of cognitive and mood symptoms in neurodegenerative and neuropsychiatric disorders with ALPHA5-containing GABAA receptor agonists” (UWM Research Foundation, Inc., priority 2016, dated 2021).
Entries after “also recorded” stand apart in the source; their conditions may differ.

Legend:
[1] = tested on: mice subjected to chronic restraint stress (CRS); assay: Y-maze alternation task, chronic restraint stress (CRS) mice; type: in vivo, mouse; settings: for effect on CRS-induced working memory deficit (percent alternation rate, Y-maze): 10 mg/kg i.p. 30 min before testing; for Alternation rate (%): Dose 10 mg/kg
Description: C57/B16 mice, males and females were ordered from Jackson Laboratories at 8 weeks old and were kept in normal housing conditions (12 h light ON cycle starting at 7 am/water and food ad libitum) for one week. During this week, animals were single housed and handled to reduce the anxiety-like response toward the experimenter. To induce a working memory deficit, mice were subjected to a chronic restraint stress protocol (CRS). They were placed in a 50 ml Falcon® tube, twice a day, for 1 hour during their diurnal cycle. The time of occurrence of the stress was randomized every day to avoid predictability. CRS was not applied on testing days. Y-maze test occurred 15 hours minimum after the last stressor.
Mice were first habituated to the Y-maze apparatus and distal cues during 2 consecutive days over a 10 min free exploration session (one session per day). The next day, animals performed a training session consisting in seven successive trials separated by a 30 s inter-trial interval (ITI); during this training session, mice were familiarized with the experimental procedure (opening and closing of the doors and confinement into the goal arms). For each trial, mice remained in the start-box for a 30 s ITI. Then, the door was opened and the mouse was allowed to enter freely one of the two goal arms; the chosen arm was closed and the choice was recorded. After a 30 s confinement period into the chosen arm, the mouse was removed and brought back to the start-box for a second trial identical to the first one and this procedure was repeated over the series of trials.
The same general procedure used in the training session was implemented 24 h later, except that the ITI was lengthened to 90 s. For this experiment, animals were acutely injected i.p. with vehicle or αPAM, 30 minutes before the beginning of the test. To dissociate memory deficits from an eventual progressive loss of motivation to alternate over the series, an 8th trial was added to the series which was separated from the 7th trial by a shorter ITI (5 s). All animals failing to alternate at the 8th trial were excluded. The mean alternation rate was calculated and was expressed in percentage (number of alternation done by the animal/total number of alternation possible×100)±SEM. The percentage of alternation during the entire task is considered as an index of working memory performance (50% of being a random alternation rate). Factorial ANOVA was applied to the data to reveal differences between groups. If the ANOVA was significant for group effect (p<0.05), Scheffe post-hoc analysis were conducted to identify which groups are different from each other.
(§1) All drugs were diluted in a vehicle solution containing 85% H2O, 14% propylene glycol (Sigma Aldrich) and 1% Tween 80 (Sigma Aldrich). Working solutions were prepared at a concentration of 10 mg/mL and administered i.p. adjusted to the body weight of each animal. Doses used were either 1, 5, 10 or 20 mg/kg. For all Y maze experiments, animals were acutely injected i.p. with vehicle or αPAM, 30 minutes before the beginning of the test.

[2] = tested on: Female Swiss Webster mice; assay: Rotarod sensorimotor / locomotor coordination; type: in vivo, mouse; settings: 40 mg/kg oral gavage; 15 rpm, 3 min; 10, 30, 60 min after dosing
Description: Female Swiss Webster mice (10 weeks of age) from Charles River Laboratory, WIL, MA were used for the experiments. The animals were housed under specific pathogen-free conditions, under standard conditions of humidity, temperature and a controlled 12 h light and dark cycle and had free access to food and water. The sensorimotor rotarod test was carried out 10, 30 and 60 minutes after the injection. Mice were tested on a rotarod at 15 rpm for maximum 3 min and the time of fall was recorded. Falling before the 3 minutes period of testing assesses of locomotor coordination impairment induced by the compound.
Mice (N=10/group) received a single administration via oral gavage of test compound (40 mg/kg), diazepam (5 mg/kg), or vehicle (2% polyethylene glycol, 2.5% hydroxypropylmethyl cellulose solution).

[3] = Human liver microsome stability assay; type: in vitro ADME; settings: 10 μM compound; for half-life at 10 μM: human, liver microsomes, read-out: Half-life (min) (HumanLM)
Description: (§2) Human and mouse liver microsomes were obtained fom BD Gentest.
(§3) Each evaluation included six independent assays carried out three at a time, on two different days
(§4) 2. For a total volume of Microsomal Assay Mixture (MAM) 390 μL, sufficient for seven time points, combine the following
(§5) 3. Sonicate MAM for 5 min and meanwhile thaw microsomes (20 mg/mL) (BD Gentest, Cat #452156) on ice.
(§6) 4. Aliquot 100 μL of ice cold ISTD into 7 separate 1.5 mL conical vials and label them the time points for 0, 10, 20, 40, 60, 90, and 120 min.
(§7) 5. Arrange the timer. Microsomes (Final concentration of 0.5 mg/mL) should be added to all time points except the zero time point.
(§8) 6. Add 50 μL of the MAM solution to the conical vial labelled as zero time point. Place the remaining MAM solution in the incubator (37° C.) for 5 min and initiate the reaction with addition of microsomes (8.8 μL) and record the time.
(§9) 7. At the end of each time interval remove 50 μL and add 100 μL to ISTD in conical vial, sonicate for 10 sec and spin down at 10,000 rpm for 5 minutes.
(§10) 8. Take 100 μL of supernatant and transfer to Spin-X HPLC filter tubes (Corning Incorporated, Cat #8169) and centrifuge at 13,000 rpm for 5 minutes and take 5 μL from this solution and dilute in 495 μL of LCMS grade methanol (Fischer scientific, CAS #67-56-1) in an 2 mL glass auto sampler vial (Microsolv, Cat #95025-WCV) 9. The samples are analyzed by LCMS-8040. (Shimadzu)
(§11) Calculation: From the peak area, calculate the following
(§12) The compounds are tested for the metabolic stability in the Human and Mouse Liver microsomes at 10 μM concentration.

[4] = Mouse liver microsome stability assay; type: in vitro ADME; settings: 10 μM compound; for half-life at 10 μM: mouse, liver microsomes, read-out: Half-life (min) (MouseLM)
Description: as §2, §3, §4, §5, §6, §7, §8, §9, §10, §11, §12

[5] = Pharmacokinetics in mice (plasma, liver, brain); settings: i.p. dosing at 3 mg/kg
HEK293 = assay: Cytotoxicity assay (CellTiter-Glo), HEK293; type: cell-based, human; settings: 48 hours incubation
Description: (§13) Human liver hepatocellular carcinoma (HEPG2) and human embryonic kidney 293 (HEK293) cell lines were purchased (ATCC) and cultured in 75 cm2 flasks (CellStar). Cells were grown in DMEM/High Glucose (Hyclone, #SH3024301) media to which non-essential amino acids (Hyclone, #SH30238.01), 10 mM HEPES (Hyclone, #SH302237.01), 5×106 units of penicillin and streptomycin (Hyclone, #SV30010), and 10% of heat inactivated fetal bovine serum (Gibco, #10082147) were added. Cells were harvested using 0.05% Trypsin (Hyclone, #SH3023601), washed with PBS, and dispensed into sterile white, optical bottom 384-well plates (NUNC, #142762). After three hours, small molecule solutions were transferred with a Tecan Freedom EVO liquid handling system equipped with a 100 nL pin tool (V&P Scientific). The controls (E)-10-(bromotriphenylphosphoranyl)decyl 4-(4-(tert-butyl)phenyl)-4-oxobut-2-enoate (400 μM in DMSO, positive control) and DMSO (negative control). The cells were incubated for 48 hours followed by the addition of CellTiter-Glo™, a luminescence-based cell viability assay (Promega, Madison, Wis.). All luminescence readings were performed on a Tecan Infinite M1000 plate reader. The assay was carried out in quadruplet with three independent runs. The data was normalized to the controls and analyzed by nonlinear regression (GraphPad Prism).

HEPG2 = assay: Cytotoxicity assay (CellTiter-Glo), HEPG2; type: cell-based, human; settings: 48 hours incubation
Description: as §13

C57B1/6 male mice = assay: Forced swim test (FST); type: in vivo, mouse; settings: 10 mg/kg i.p. 24, 20, 1 hour before testing; vs vehicle
Description: C57B1/6 male mice were ordered from Jackson Laboratories at 8 weeks-old and were group housed (4-5 mice/cage) under normal housing conditions (12 h light ON cycle starting at 7 am/water and food ad libitum) for one week. During this week, animals were handled in order to habituate them to the experimenter and to reduce their anxiety-like response during behavioral testing.
as §1, with “20” for “10”, “5 or” for “5,”, “10” for “10 or 20”, “FST” for “Y maze”, “were” for “were acutely”, “αPAM.” for “αPAM, 30 minutes before the beginning of the test.”
Mice were tested in the forced swim test (FST) (measure of despair-like behavior used for the assessment of antidepressant efficacy). Animals were sub-chronically injected three times (24, 20 and 1 hour before testing) as per standard methods in the field for testing potential antidepressant compounds.
One hour after the last injection, mice were placed in an inescapable transparent tank filled with water (25 cm, 25-26° C.), where they are unable to touch the bottom and unable to jump out of the tank. Animal were recorded for a period of 6 minutes and a manual count of the immobile time in the tank was measured for the 2-6 minutes period by an experimenter blinded to the mouse treatment history. Immobility is defined as the minimum amount of movement to stay afloat. Compounds that reduced immobility in the FST are considered to have potential antidepressant actions.

C#Cc1ccc2c(c1)C(c1ccccc1F)=N[C@@H](C)c1c(-c3nc(C)no3)ncn1-2 [GL-I-65, (S)-5-(8-ethynyl-6-(2-fluorophenyl)-4-methyl-4H-benzo[f]imidazo[1,5-a][1,4]diazepin-3-yl)-3-methyl-1,2,4-oxadiazole]
effect on CRS-induced working memory deficit (percent alternation rate, Y-maze) [1]: significant reversal of CRS-induced impairment in working memory; also recorded: increase in alternation rate | sensorimotor impairment on rotarod (time of fall) [2]: no sensorimotor impairment | Half-life (min) (HumanLM) [3]: 866 ± 213 min | % left after 2 hr. (Human LM) [3]: 86.4 ± 0.3% | Half-life (min) (MouseLM) [4]: 443 ± 67 min | % left after 2 hr. (MouseLM) [4]: 81.0 ± 0.4% | molar concentration range reached in mouse brain tissue [5]: moderate to high submicromolar concentrations

C#Cc1ccc2c(c1)C(c1ccccn1)=N[C@H](C)c1c(C(=O)NC)ncn1-2 [GL-II-31, (R)-8-ethynyl-N,4-dimethyl-6-(pyridin-2-yl)-4H-benzo[f]imidazo[1,5-a][1,4]diazepine-3-carboxamide]
Alternation rate (%) [1]: 56.6% | sensorimotor impairment on rotarod (time of fall) [2]: no sensorimotor impairment | half-life at 10 μM [3]: 1870 ± 765 min | half-life at 10 μM [4]: 1840 ± 590 min | HEK293 LD50 (HEK293): >400 µM | HEPG2 LD50 (HEPG2): >400 µM | molar concentration range reached in mouse brain tissue [5]: moderate to high submicromolar concentrations

C#Cc1ccc2c(c1)C(c1ccccn1)=N[C@H](C)c1c(-c3nc(C)no3)ncn1-2 [GL-II-33, (R)-5-(8-ethynyl-4-methyl-6-(pyridin-2-yl)-4H-benzo[f]imidazo[1,5-a][1,4]diazepin-3-yl)-3-methyl-1,2,4-oxadiazole]
effect on CRS-induced working memory deficit (percent alternation rate, Y-maze) [1]: a trend in the reversal of CRS-induced impairment in working memory; also recorded: a trend was detected | sensorimotor impairment on rotarod (time of fall) [2]: no sensorimotor impairment | half-life at 10 μM [3]: 2590 ± 1110 min | % left after 2 hr. (MouseLM) [4]: 82.0 ± 0.3% | half-life at 10 μM [4]: 500 ± 66 min | HEK293 LD50 (HEK293): >400 µM | HEPG2 LD50 (HEPG2): >400 µM | molar concentration range reached in mouse brain tissue [5]: moderate to high submicromolar concentrations

Cc1noc(-c2ncn3c2[C@@H](C)N=C(c2ccccn2)c2cc(Br)ccc2-3)n1 [GL-II-54, (R)-5-(8-bromo-4-methyl-6-(pyridin-2-yl)-4H-benzo[f]imidazo[1,5-a][1,4]diazepin-3-yl)-3-methyl-1,2,4-oxadiazole]
Alternation rate (%) [1]: 66.66% | time spent immobile in the FST (C57B1/6 male mice): significant decrease in immobility time; also recorded: significant antidepressant-like action | sensorimotor impairment on rotarod (time of fall) [2]: no sensorimotor impairment | % left after 2 hr. (Human LM) [3]: 76.0 ± 0.2% | half-life at 10 μM [3]: 404 ± 61 min | half-life at 10 μM [4]: 2330 ± 1110 min | HEK293 LD50 (HEK293): >400 µM | HEPG2 LD50 (HEPG2): >400 µM | molar concentration range reached in mouse brain tissue [5]: high submicromolar to low micromolar values

C#Cc1ccc2c(c1)C(c1ccccc1F)=NCc1c(-c3nc(C)no3)ncn1-2 [GL-III-23, 5-(8-ethynyl-6-(2-fluorophenyl)-4H-benzo[f]imidazo[1,5-a][1,4]diazepin-3-yl)-3-methyl-1,2,4-oxadiazole]
Alternation rate (%) [1]: 56.6% | % left after 2 hr. (Human LM) [3]: 82.0 ± 0.3% | half-life at 10 μM [3]: 504 ± 77 min | half-life at 10 μM [4]: 1320 ± 316 min | HEK293 LD50 (HEK293): >100 µM | HEPG2 LD50 (HEPG2): >100 µM | molar concentration range reached in mouse brain tissue [5]: micromolar concentrations
